# Data taken from patent publication US20100068208A1, “Degranulation inhibitor” (priority 2005, published 2010).
# Columns and labels:
# Assay type in all cases: cell-based
# RBL-2H3 [1] = experiment: Degranulation promoting effect in RBL2H3 (β-hexosaminidase release)
# Method: (§1) RBL-2H3 (hereinafter RBL2H3) was incubated in α-MEM (Invitrogen) supplemented with 10% fetal calf serum. Vector plasmid pcDNA3.1 for animal cell expression, in which the nucleotide sequence containing the initiation codon to the termination codon of human TGR12 (DNA having the nucleotide sequence represented by SEQ ID NO: 32) was incorporated, was stably expressed in RBL-2H3 to establish human TGR12-expressed RBL-2H3 cell line (hereinafter RBL2H3-TGR12). RBL2H3-TGR12 was incubated in α-MEM (Invitrogen) supplemented with 10% fetal calf serum and 200 μg/mL of Geneticin.
# The degranulation promoting effect was determined as follows. RBL2H3 and RBL2H3-TGR12 were plated into a 96-well plate at a density of 40,000 cells/well and incubated overnight. Afterward the medium was discarded. […] The β-hexosaminidase activity in the supernatant for the degranulation assay was measured as follows to determine the degree of degranulation. The supernatant was dispensed into a 96-well plate and a 5-fold volume of 0.1M citrate (pH 4.5)/1 mM 4-methyl umbelliferyl-2-acetamido-2-deoxy-beta-D-glucopyranoside (Wako Pure Chemical) based on the volume of the supernatant was added thereto, followed by incubation at 37° C. for an hour. Subsequently, a 0.1-fold volume of 0.2 M glycine/NaCO3 (pH 10.7) based on the volume of the reaction solution was added to stop the reaction and the fluorescence was measured using Fusion-α (Perkin Elmer). For the β-hexosaminidase activity, the activity in the supernatant, which was obtained by likewise plating RBL2H3 and RBL2H3-TGR12GFP onto the plate, detaching the same with trypsin/EDTA, freeze-thawing 4 times and then centrifugation, was made the total β-hexosaminidase activity in LAD 2. The degree of degranulation was shown by a ratio of the β-hexosaminidase activity in the LAD 2 supernatant to the total β-hexosaminidase activity.
# RBL-2H3 [2] = experiment: Intracellular calcium increasing activity in RBL2H3 (FLIPR); design: unit not given here
# Method: as §1
# The intracellular calcium increasing activity was assayed as follows. RBL2H3 and RBL2H3-TGR12 were plated in a 96-well plate at a density of 40,000 cells/well and incubated overnight. The medium was then discarded and 100 μL/well of 4 μM Fluo3-AM (Dojin Kagaku)-containing assay buffer [Hank's Balanced Salt Solution (Invitrogen), 20 mM HEPES (Dojin Kagaku) and 2.5 mM Probenecid (Sigma)] was added. The mixture was allowed to stand for an hour at 37° C. Various TGR12 (Peptide Institute, Inc.) or calcium ionophore A23187 (Wako Pure Chemical) was diluted in 0.05% CHAPS-containing assay buffer. After the cells were washed with the assay buffer, fluorescence emitted with changes in intracellular calcium was measured using FLIPR (Molecular Device). A sample, 50 μL, was added at a rate of 50 μL/sec. 10 seconds after initiation of the assay. Fluorescence was measured every 1 second during the first 60 seconds and every 6 seconds during the next 120 seconds. The highest fluorescence intensity during 3 minutes was made the maximum activity under the stimulation conditions, which was taken as an average of 3 wells. The EC50 values were calculated using Graphpad PRISM 4 (Graphpad Software).
# [3] = tested on: human mast cell line LAD 2; experiment: Expression of TNF-α, CCL-2 or CCL-5 mRNA in LAD 2 (TaqMan PCR); settings: 1 μM
# Method: Human mast cell line LAD 2 was cultured in StemPro-34 medium (Invitrogen) supplemented with 100 ng/mL of stem cell factor (Immuno-Biological Laboratories Co., Ltd.). […] A 750 μL aliquot was inoculated on a 24-well plate, which was then allowed to stand in a CO2 incubator at 37° C. for 30 minutes. […] The assay was performed for the respective reaction conditions in n=3. The plate was ice-chilled 0.5, 2, 8 and 24 hours after to stop the activation of LAD 2. After centrifugation at 300×g for 5 minutes, total RNA was extracted from the precipitated cells using RNeasy Mini Kit (Qiagen) according to the protocol attached. Further in the experiments where expression levels upon stimulation by various TGR12 ligands were analyzed, LAD 2 was centrifuged at 300×g for 5 minutes and the cells precipitated were counted and suspended in the medium at 1.33×10^6 cells/mL. A 750 μL aliquot was inoculated on a 24-well plate, which was allowed to stand in a CO2 incubator at 37° C. for 30 minutes. […] The assay was performed for the respective reaction conditions in n=3. Two hours after, the plate was ice-chilled to stop the activation of LAD 2. After centrifugation at 300×g for 5 minutes, total RNA was extracted from the precipitated cells using RNeasy Mini Kit (Qiagen) according to the protocol attached. The total RNA obtained as described above was concentrated using ethachinmate according to the protocol attached and dissolved in RNase-free H2O, Next, using the solution corresponding to […] of total RNA, reverse transcription was performed by the following procedure using SuperScript II reverse transcriptase (Invitrogen) to synthesize single stranded cDNA. To the total RNA solution, 0.1 μg of random primer (Invitrogen) and 1 μL of 10 mM dNTP (Invitrogen) were added and then RNase-free H2O was added to make the whole volume 12 μL. The mixture was then incubated at 70° C. for 10 minutes and ice-cooled for a minute. After 4 μL of 5× First-Strand Buffer (attached to SuperScript II reverse transcriptase), 2 μL of 0.1M DTT (attached to SuperScript II reverse transcriptase), 1 μL of RNaseOUT (Invitrogen) and 1 μL of SuperScript II reverse transcriptase were added, the mixture was incubated at 42° C. for 50 minutes, then at 70° C. for 15 minutes and ice-cooled for 5 minutes. The thus obtained cDNA was purified using ethachinmate in accordance with the protocol attached and dissolved in Tris-EDTA buffer (Fluka).
# In TaqMan PCR below, hTNFalpha-tF (SEQ ID NO: 33) and hTNFalpha-tR (SEQ ID NO: 34) were used as primers for human TNF-α quantification, hTNFalpha-tP (SEQ ID NO: 35) as a probe and hTNFalpha-standard (SEQ ID NO: 36) as a standard. For human CCL-5 quantification, hCCL5-tF (SEQ ID NO: 37) and hCCL5-tR (SEQ ID NO: 38) were used as primers, hCCL5-tP (SEQ ID NO: 39) as a probe and hCCL5 standard (SEQ ID NO: 40) as a standard. For human CCL-2 quantification, hCCL2-tF (SEQ ID NO: 41) and hCCL2-tR (SEQ ID NO: 42) were used as primers, hCCL2-tP (SEQ ID NO: 43) as a probe and hCCL2 standard (SEQ ID NO: 44) as a standard.
# TaqMan PCR was performed in n=2 for each sample in a liquid volume of 15 μl using 12.5 ng of total RNA as a template. The reaction solution was composed of 900 nM primer, 250 nM probe and ½ volume of TaqMan Universal PCR Master Mix (Applied Biosystems). The reaction and analysis were performed by ABI PRISM 7900HT Sequence Detection System (Applied Biosystems). After keeping warm at 50° C. for 2 minutes and then at 95° C. for 10 minutes, the reaction cycle was set in one cycle to include 95° C. for 15 seconds and 60° C. for 1 minute and repeating the cycle 40 times.
# [4] = time course, 0.5 hours after the stimulation
# [5] = time course, 2 hours after the stimulation
# [6] = time course, 8 hours after the stimulation
# [7] = time course, 24 hours after the stimulation
# [8] = various TGR12 ligands experiment, two hours after stimulation
smiles,measurement,setting,value
CSCC[C@H](NC(=O)[C@H](CC(C)C)NC(=O)CNC(=O)[C@H](Cc1ccccc1)NC(=O)[C@H](Cc1ccccc1)NC(=O)[C@H](CCC(N)=O)NC(=O)[C@H](CCC(N)=O)NC(=O)[C@@H]1CCCN1C(=O)[C@H](CCCCN)NC(=O)[C@@H]1CCCN1C(=O)[C@@H](N)CCCNC(=N)N)C(N)=O [substance P],degranulation (β-hexosaminidase in supernatant to total),"RBL-2H3 [1]; RBL2H3, 10 nM",8.8%
same,degranulation (β-hexosaminidase in supernatant to total),"RBL-2H3 [1]; RBL2H3, 30 nM",8.9%
same,degranulation (β-hexosaminidase in supernatant to total),"RBL-2H3 [1]; RBL2H3, 100 nM",8.9%
same,degranulation (β-hexosaminidase in supernatant to total),"RBL-2H3 [1]; RBL2H3, 300 nM",8.5%
same,degranulation (β-hexosaminidase in supernatant to total),"RBL-2H3 [1]; RBL2H3, 1 μM",8.4%
same,degranulation (β-hexosaminidase in supernatant to total),"RBL-2H3 [1]; RBL2H3, 3 μM",7.9%
same,maximum activity in the calcium increasing effect,"RBL-2H3 [2]; RBL2H3, 1 nM",44
same,maximum activity in the calcium increasing effect,"RBL-2H3 [2]; RBL2H3, 10 nM",51
same,maximum activity in the calcium increasing effect,"RBL-2H3 [2]; RBL2H3, 100 nM",50
same,maximum activity in the calcium increasing effect,"RBL-2H3 [2]; RBL2H3, 1 μM",95
same,maximum activity in the calcium increasing effect,"RBL-2H3 [2]; RBL2H3, 10 μM",41
same,expression level of CCL-5 in LAD 2,[3]; [4],38107 copies
same,expression level of TNF-α in LAD 2,[3]; [4],56065 copies
same,expression level of CCL-5 in LAD 2,[3]; [5],88872 copies
same,expression level of TNF-α in LAD 2,[3]; [5],1346293 copies
same,expression level of CCL-5 in LAD 2,[3]; [6],69921 copies
same,expression level of TNF-α in LAD 2,[3]; [6],54313 copies
same,expression level of CCL-5 in LAD 2,[3]; [7],53605 copies
same,expression level of TNF-α in LAD 2,[3]; [7],4332 copies
same,expression level of CCL-2 in LAD 2,[3]; [8],2694837 copies
same,expression level of CCL-5 in LAD 2,[3]; [8],47117 copies
same,expression level of TNF-α in LAD 2,[3]; [8],173462 copies
